Patent US6790540B2, “Organic electroluminescent element material and organic electroluminescent element” (Nippon Steel Chemical Co., Ltd., priority 2000, dated 2004)

How the values were obtained:
[1] = Solubility (wt %) of compounds in chloroform and toluene; assay type: physicochemical; parameters: key: ◯: ∘, completely soluble; Δ, a slight amount remaining insoluble; X, a considerable amount remaining insoluble; settings: for Solubility, Chloroform 0.1% soln. / Solubility, Toluene 0.1% soln.: 0.1% soln. (wt %); for Solubility, Chloroform 1% soln. / Solubility, Toluene 1% soln.: 1% soln. (wt %); for Solubility, Chloroform 5% soln. / Solubility, Toluene 5% soln.: 5% soln. (wt %); for Solubility, Chloroform 10% soln. / Solubility, Toluene 10% soln.: 10% soln. (wt %)
Text: The symbols in the table stand for the following: ∘, completely soluble; Δ, a slight amount remaining insoluble; X, a considerable amount remaining insoluble.

[2] = Maximum PL wavelength in chloroform; assay type: physicochemical; settings: in chloroform (Compound B: 0.1 mM, excitation 350 nm)
Protocol: Next, 5.0 g (0.016 mole) of Compound J, 2.12 g (0.016 mole) of zinc chloride and 4.74 g (0.047 mole) of triethylamine were suspended in 30 ml of ethanol and allowed to react at room temperature. After 3 hours, the separated yellow powder was filtered, washed with ethanol, and purified by column chromatography to give […] (90.0%) of Compound B as yellow crystals. The maximum PL wavelength of Compound B in chloroform was 509 nm (concentration, 0.1 mM; solvent, CHCl3; excitation, 350 nm).

SMILES: c1cnc2c([O][Al]([O]c3cccc4cccnc34)[O]c3cccc4cccnc34)cccc2c1 [Alq3, aluminum-8-hydroxyquinoline complex]
- Solubility, Chloroform 0.1% soln. [1]: Δ
- Solubility, Chloroform 1% soln. [1]: X
- Solubility, Chloroform 5% soln. [1]: X
- Solubility, Chloroform 10% soln. [1]: X
- Solubility, Toluene 0.1% soln. [1]: X
- Solubility, Toluene 1% soln. [1]: X
- Solubility, Toluene 5% soln. [1]: X
- Solubility, Toluene 10% soln. [1]: X

SMILES: CCCCCCCCS(=O)(=O)[N-]c1ccccc1-c1nc2ccccc2o1.CCCCCCCCS(=O)(=O)[N-]c1ccccc1-c1nc2ccccc2o1.[Zn+2] [Compound 6a, zinc bis-2-(2-(n-octylsulfonamido)phenyl)benzoxazolate]
- Solubility, Chloroform 0.1% soln. [1]: ◯
- Solubility, Chloroform 1% soln. [1]: ◯
- Solubility, Chloroform 5% soln. [1]: ◯
- Solubility, Chloroform 10% soln. [1]: ◯
- Solubility, Toluene 0.1% soln. [1]: ◯
- Solubility, Toluene 1% soln. [1]: ◯
- Solubility, Toluene 5% soln. [1]: Δ
- Solubility, Toluene 10% soln. [1]: X

SMILES: CCCCCCCCS(=O)(=O)[N-]c1cccc2cccnc12.CCCCCCCCS(=O)(=O)[N-]c1cccc2cccnc12.[Zn+2] [Compound B, zinc bis-8-(n-octylsulfonamido)quinolinate]
- maximum PL wavelength [2]: 509 nm

SMILES: CS(=O)(=O)[N-]c1cccc2cccnc12.CS(=O)(=O)[N-]c1cccc2cccnc12.[Zn+2] [Compound M, Zinc bis-8-(methylsulfonamido)quinolinate]
- Solubility, Chloroform 0.1% soln. [1]: Δ
- Solubility, Chloroform 1% soln. [1]: X
- Solubility, Chloroform 5% soln. [1]: X
- Solubility, Chloroform 10% soln. [1]: X
- Solubility, Toluene 0.1% soln. [1]: X
- Solubility, Toluene 1% soln. [1]: X
- Solubility, Toluene 5% soln. [1]: X
- Solubility, Toluene 10% soln. [1]: X
- maximum PL wavelength [2]: 505 nm

SMILES: CCCCS(=O)(=O)[N-]c1cccc2cccnc12.CCCCS(=O)(=O)[N-]c1cccc2cccnc12.[Zn+2] [Compound N, Zinc bis-8-(n-butylsulfonamido)quinolinate]
- Solubility, Chloroform 0.1% soln. [1]: ◯
- Solubility, Chloroform 1% soln. [1]: Δ
- Solubility, Chloroform 5% soln. [1]: X
- Solubility, Chloroform 10% soln. [1]: X
- Solubility, Toluene 0.1% soln. [1]: X
- Solubility, Toluene 1% soln. [1]: X
- Solubility, Toluene 5% soln. [1]: X
- Solubility, Toluene 10% soln. [1]: X
- maximum PL wavelength [2]: 510 nm
